In patent publication US20070128217A1 (priority 2003, published 2007):

Legend:
[1] = tested on: rabbit serum obtained by immunizing a rabbit with the SARS-CoV strain Frankfurt 1; type: binding; design: Binding of a rabbit serum to linear peptides / Binding of a rabbit serum to looped peptides / Rabbit serum linear peptides / Rabbit serum looped peptides / Binding of a rabbit serum to linear peptides of protein N of SARS-CoV Urbani (Rabbit serum linear peptides) / Binding of a rabbit serum to looped/cyclic peptides of protein N of SARS-CoV Urbani (Rabbit serum looped peptides): unit not given here
[2] = tested on: control sera (pooled serum of ten healthy LUMC hospital workers; commercial negative donor pooled serum from the Dutch bloodbank); type: binding, human; design: Binding of Control serum LUMC to linear peptides / Binding of Control serum Blood-bank to linear peptides / Binding of Control serum LUMC to looped peptides / Binding of Control Serum Blood-Bank to Looped peptides / Binding of Control serum LUMC to linear peptides of the protein M of SARS-CoV Urbani / Binding of Control serum Blood-bank to linear peptides of the protein M of SARS-CoV Urbani / Binding of Control serum LUMC to looped peptides of the protein M of SARS-CoV Urbani / Binding of Control Serum Blood-Bank to Looped peptides of the protein M of SARS-CoV Urbani: unit not given here
[3] = tested on: antibodies in sera from SARS patients (sera 1a, 1b, 2, 6, 37, 62, London, SARS-yellow, SARS-green); type: binding, human; design: Binding of serum 6 to linear peptides of protein X1 of SARS-CoV Urbani / Binding of serum 37 to linear peptides of protein X1 of SARS-CoV Urbani / Binding of serum 6 to looped/cyclic peptide (PEPSCAN-ELISA) / Binding of serum 37 to looped/cyclic peptide (PEPSCAN-ELISA) / Binding of serum 37 to looped/cyclic peptides of protein X1 of SARS-CoV Urbani / Binding of serum 6 to linear peptides of protein X2 / Binding of serum 37 to linear peptides of protein X2 / Binding of serum 37 to looped/cyclic peptides of protein X2 of SARS-CoV Urbani / Binding of serum 6 to linear peptides of protein M of SARS-CoV Urbani / Binding of serum 37 to linear peptides of protein M of SARS-CoV Urbani / Binding of serum 6 to looped/cyclic peptides of protein M of SARS-CoV Urbani / Binding of serum 37 to looped/cyclic peptides of protein M of SARS-CoV Urbani / Binding of serum 6 to linear peptides of protein X3 of SARS-CoV Urbani / Binding of serum 37 to linear peptides of protein X3 of SARS-CoV Urbani / Binding of serum 37 to looped/cyclic peptides of protein X3 of SARS-CoV Urbani / Binding of serum 6 to linear peptides of protein X4 of SARS-CoV Urbani / Binding of serum 37 to linear peptides of protein X4 of SARS-CoV Urbani / Binding of serum 37 to looped/cyclic peptides of protein X4 of SARS-CoV Urbani / Binding of serum 6 to linear peptides of protein X5 of SARS-CoV Urbani / Binding of serum 37 to linear peptides of protein X5 of SARS-CoV Urbani / Binding of serum 37 to looped/cyclic peptides of protein X5 of SARS-CoV Urbani / Binding of serum 6 to linear peptides of protein N of SARS-CoV Urbani / Binding of serum 37 to linear peptides of protein N of SARS-CoV Urbani / Binding of serum 6 to linear peptide (PEPSCAN-ELISA) / Binding of serum 1a to looped/cyclic peptides of protein N of SARS-CoV Urbani / Binding of serum 1b to looped/cyclic peptides of protein N of SARS-CoV Urbani / Binding of serum 2 to looped/cyclic peptides of protein N of SARS-CoV Urbani / Binding of serum 6 to looped/cyclic peptides of protein N of SARS-CoV Urbani / Binding of serum 37 to looped/cyclic peptides of protein N of SARS-CoV Urbani / Binding of serum 62 to looped/cyclic peptides of protein N of SARS-CoV Urbani / Binding of serum London to looped/cyclic peptides of protein N of SARS-CoV Urbani / Binding of serum SARS-green to looped/cyclic peptides of protein N of SARS-CoV Urbani: unit not given here

## TVATSRTLSYYKLGA
[1]
  Rabbit serum linear peptides: 0.8
  Rabbit serum looped peptides: 0.2
[2]
  Binding of Control Serum Blood-Bank to Looped peptides of the protein M of SARS-CoV Urbani: 0.7
  Binding of Control serum Blood-bank to linear peptides of the protein M of SARS-CoV Urbani: 0.8
  Binding of Control serum LUMC to linear peptides of the protein M of SARS-CoV Urbani: 0.6
  Binding of Control serum LUMC to looped peptides of the protein M of SARS-CoV Urbani: 0.7
[3]
  Binding of serum 1a to linear peptides of protein M of SARS-CoV Urbani: 0.7
  Binding of serum 1a to looped/cyclic peptides of protein M of SARS-CoV Urbani: 0.8
  Binding of serum 1b to linear peptides of protein M of SARS-CoV Urbani: 0.6
  Binding of serum 1b to looped/cyclic peptides of protein M of SARS-CoV Urbani: 0.4
  Binding of serum 2 to linear peptides of protein M of SARS-CoV Urbani: 0.7
  Binding of serum 2 to looped/cyclic peptides of protein M of SARS-CoV Urbani: 0.6
  Binding of serum 6 to linear peptides of protein M of SARS-CoV Urbani: 0.6
  Binding of serum 6 to looped/cyclic peptides of protein M of SARS-CoV Urbani: 1.1
  Binding of serum 37 to linear peptides of protein M of SARS-CoV Urbani: 0.8
  Binding of serum 37 to looped/cyclic peptides of protein M of SARS-CoV Urbani: 0.5
  Binding of serum 62 to linear peptides of protein M of SARS-CoV Urbani: 0.8
  Binding of serum 62 to looped/cyclic peptides of protein M of SARS-CoV Urbani: 0.5
  Binding of serum London to linear peptides of protein M of SARS-CoV Urbani: 0.4
  Binding of serum London to looped/cyclic peptides of protein M of SARS-CoV Urbani: 0.3
  Binding of serum SARS-green to linear peptides of protein M of SARS-CoV Urbani: 0.3
  Binding of serum SARS-green to looped/cyclic peptides of protein M of SARS-CoV Urbani: 0.4
  Binding of serum SARS-yellow to linear peptides of protein M of SARS-CoV Urbani: 0.1
  Binding of serum SARS-yellow to looped/cyclic peptides of protein M of SARS-CoV Urbani: 0.5

## TYQLRARSVSPKLFI
[1]
  Recognition of the peptide by the rabbit serum: recognized
[2]
  Binding of Control Serum Blood-Bank to Looped peptides: 0.9
  Binding of Control serum Blood-bank to linear peptides: 1.0
  Binding of Control serum LUMC to linear peptides: 0.7
  Binding of Control serum LUMC to looped peptides: 0.9
[3]
  Binding of serum 1a to linear peptides of protein X4 of SARS-CoV Urbani: 0.8
  Binding of serum 1a to looped/cyclic peptides of protein X4 of SARS-CoV Urbani: 0.9
  Binding of serum 1b to linear peptides of protein X4 of SARS-CoV Urbani: 0.6
  Binding of serum 1b to looped/cyclic peptides of protein X4 of SARS-CoV Urbani: 0.7
  Binding of serum 2 to linear peptides of protein X4 of SARS-CoV Urbani: 0.7
  Binding of serum 2 to looped/cyclic peptides of protein X4 of SARS-CoV Urbani: 0.8
  Binding of serum 6 to linear peptides of protein X4 of SARS-CoV Urbani: 0.9
  Binding of serum 6 to looped/cyclic peptides of protein X4 of SARS-CoV Urbani: 1.3
  Binding of serum 37 to linear peptides of protein X4 of SARS-CoV Urbani: 0.8
  Binding of serum 37 to looped/cyclic peptides of protein X4 of SARS-CoV Urbani: 0.6
  Binding of serum 62 to linear peptides of protein X4 of SARS-CoV Urbani: 0.9
  Binding of serum 62 to looped/cyclic peptides of protein X4 of SARS-CoV Urbani: 0.8
  Binding of serum London to linear peptides of protein X4 of SARS-CoV Urbani: 0.9
  Binding of serum London to looped/cyclic peptides of protein X4 of SARS-CoV Urbani: 1.4
  Binding of serum SARS-green to linear peptides of protein X4 of SARS-CoV Urbani: 0.7
  Binding of serum SARS-green to looped/cyclic peptides of protein X4 of SARS-CoV Urbani: 0.2
  Binding of serum SARS-yellow to linear peptides of protein X4 of SARS-CoV Urbani: 0.6
  Binding of serum SARS-yellow to looped/cyclic peptides of protein X4 of SARS-CoV Urbani: 0.9
